The values below come from EP0457243A1, “Novel tricyclic compounds” (priority 1990, dated 1991).

Data set [1] has as its system C5BI/6J mice. Kind of data set: Mouse anxiolytic behavior model (two-compartment exploratory model). Type of data set: in vivo. Also noted: % ACTIVITY DARK AREA W% / SHUTTLE ACTIVITY W% / LOCOMOTOR ACTIVITY (LIGHT AREA) W% / % ACTIVITY DARK AREA Mean ± SD: concentration or dose not given beside the values. As to conditions: for % ACTIVITY DARK AREA Mean ± SD / LATENCY (SEC) Mean ± SD / LOCOMOTOR ACTIVITY (LIGHT AREA) Mean ± SD / SHUTTLE ACTIVITY Mean ± SD / TIME DARK AREA (SEC) Mean ± SD: i.p., 15 min post-treatment, monitored for 10 minutes; for % ACTIVITY DARK AREA W% / LATENCY (SEC) W% / LOCOMOTOR ACTIVITY (LIGHT AREA) W% / SHUTTLE ACTIVITY W% / TIME DARK AREA (SEC) W%: percentage change from control. Here is the method: In brief, the method involves determining whether a compound reduces the natural anxiety of mice in brightly-lit areas.
The following describes an in vivo method for determining anxiolytic activity of compounds of Formula I.
Naive male C5BI/6J mice, 18-20 g, are kept in groups of 10 mice in quarters controlled for sound, temperature and humidity. Food and water are available ad libitum. The mice are kept on a 12 hour light and 12 hour dark cycle, with lights on at 6:00 a.m. and off at 6:00 p.m. All experiments begin at least 7 days after arrival on site.
Briefly, the chamber consists of a plexiglass box (44 x 21 x 21 cm), divided into two chambers by a black plexiglass partition. The partition dividing the two chambers contains a 13 x 5 cm opening through which the mouse can easily pass. The dark chamber has […]. A fluorescent tube light (40 watt) placed above the chambers provides the only illumination. The Digiscan Animal Activity Monitor System RXYZCM16 (Omni-Tech Electronics) records the exploratory activity of the mice within the test chambers.
Prior to commencement of the study the mice are given 60 min to acclimatize to the laboratory environment. After a mouse receives an intraperitoneal (i.p.) injection of either test compound or vehicle it is returned to its home cage for a 15 min post-treatment period. The mouse is then placed in the center of the light chamber and monitored for 10 minutes.
Anxiolysis is seen as a general increase in exploratory activity in the lighted area. An increase in exploratory activity is relected by increased latency (the time for the mouse to move to the dark chamber when first placed in the center of the lighted area), increase in shuttle activity, increased or unaltered locomotor activity (number of grid lines crossed) and decreased time spent in the dark compartment.

The subject of data set [2] is BKW mice. As to conditions: 1 µ/g/kg i.p. Here is the method:
Anxiolytic activity during withdrawal from drugs of abuse is determined by the mouse light/dark withdrawal anxiety test. This procedure utilizes the exploratory model described above to test for anxiolytic activity after administration and subsequent abrupt cessation of diazepam, alcohol, cocaine or nicotine treatments. A detailed description is set for in Example 13 of this application.
The following procedure describes a method to determine whether compounds of Formula I effect the anxiety that occurs after abruptly ceasing chronic treatment with drugs of abuse.
Naive male BKW mice (25-30 g) are caged in groups of ten in quarters controlled for sound, temperature and humidity. Food and water are available ad libitum. The mice are kept on a 12 hour light cycle and 12 hour dark cycle, with lights on at 6:00 a.m. and off at 6:00 p.m. All experiments begin at least 7 days after arrival on site.
Levels of anxiety are determined by the two-compartment exploratory model of Crawley and Goodwin (see Example 12). Anxiolysis is seen as a general increase in exploratory activity in the lighted area. An increase in exploratory activity is relected by increased latency (the time for the mouse to move to the dark chamber when first placed in the center of the lighted area), increased or unaltered locomotor activity (number of grid lines crossed), increased number of rears and decreased time spent in the dark compartment.
Increased exploratory activity in the lighted area is induced by treating the mice for 14 days with alcohol (8.0 % w/v in drinking water), nicotine (0.1 mg/kg, i.p., twice daily), diazepam (10 mg/kg, i.p., twice daily), or cocaine (1.0 mg/kg, i.p., twice daily). Anxiolysis is assessed 1, 3, 7 and 14 days after commencement of the drug regime. The treatment is abruptly ceased and exploratory activity in the lighted area is determined 8, 24 and 48 hours thereafter. Vehicle or test compounds are administered during the withdrawl phase by intraperitoneal injection. Responses are represented as inhibition of the decrease in anxiolytic behavior after the alcohol, cocaine or nicotine treatment is ceased.

Data set [3] in a line: Toxicity observation after i.p. administration. It counts as in vivo. As to conditions: 10 mg/kg, over 90 minutes.

Molecules are shown by their SMILES. Read-outs that look alike come from different tables or passages of the source.

On to `Cl.Nc1c(Cl)cc2c3c(cccc13)C(=O)N([C@@H]1CN3CCC1CC3)C2=O` [(1), S-6-amino-5-chloro-2-(1-azabicyclo[2.2.2]oct-3-yl)-2,3-dihydro-1H-benz[de]isoquinoline-1,3-dione hydrochloride], for which, in data set [1], the “% ACTIVITY DARK AREA Mean ± SD” value is 37.6 ± 4.9 %, the “LATENCY (SEC) Mean ± SD” value came to 3.5 ± 0.5 s, the “LOCOMOTOR ACTIVITY (LIGHT AREA) Mean ± SD” value was 1208.0 ± 86.4 and the “SHUTTLE ACTIVITY Mean ± SD” value was 42.0 ± 3.9. Also, in data set [1], the “TIME DARK AREA (SEC) Mean ± SD” value was 394.9 ± 32.8 s, the “% ACTIVITY DARK AREA W%” value is on record as -54.0%, the “LATENCY (SEC) W%” value is -28.6% and the “LOCOMOTOR ACTIVITY (LIGHT AREA) W%” value is given as 41.0%. For the same compound, in data set [1], the “SHUTTLE ACTIVITY W%” value turned out to be 37.3% and the “TIME DARK AREA (SEC) W%” value is recorded as -26.9%. In data set [2] (alcohol withdrawal), the “Crossings/ 5 Min in Light” value was 88.0±9.0, the “Latency” value was determined as 9.0 ± 1.3 s, the “Rears/5 Min in Light” value turned out to be 86.0±9.0 and the “Time in Dark (%)” value is on record as 60.0±6.4%. In data set [2] (cocaine withdrawal), the “Crossings/ 5 Min in Light” value was 135.±15.7, the “Latency” value is 28.7 ± 2.81 s, the “Rears/5 Min in Light” value was determined as 101.±2.81 and the “Time in Dark (%)” value is listed as 22.5±2.4%. Besides, in data set [2] (diazepam withdrawal), the “Crossings/ 5 Min in Light” value amounted to 97.5±10.6, the “Latency” value came out at 34.0 ± 3.7 s, the “Rears/5 Min in Light” value is on record as 89.2±9.1 and the “Time in Dark (%)” value came out at 27.4±2.9%. In addition, in data set [2] (nicotine withdrawal), the “Crossings/ 5 Min in Light” value worked out at 94.0±10.1, the “Latency” value worked out at 20.8 ± 2.4 s, the “Rears/5 Min in Light” value was determined as 84.5±9.0 and the “Time in Dark (%)” value was determined as 29.0±3.1%.

`Cl.O=C1c2cccc3cccc(c23)C(=O)N1[C@@H]1CN2CCC1CC2` [S-2-(1-azabicyclo[2.2.2]oct-3-yl)-2,3-dihydro-1H-benz[de]isoquinoline-1,3-dione hydrochloride]: the unusual effects observed result in data set [3] is recorded as “No unusual effects”.

Take `Cl.Nc1cc2c3c(cccc3c1Cl)C(=O)N(C1CN3CCC1CC3)C2=O` (stereo not shown) [RS-6-chloro-5-amino-2-(1-azabicyclo[2.2.2]oct-3-yl)-2,3-dihydro-1H-benz[de]isoquinoline-1,3-dione hydrochloride]: in data set [3], the unusual effects observed entry is listed as “No unusual effects”.

For `I.Nc1c(Cl)cc2c3c(cccc13)C(=O)N([C@@H]1CN3CCC1CC3)C2=O` [(2), S-6-amino-5-chloro-2-(1-azabicyclo[2.2.2]oct-3-yl)-2,3-dihydro-1H-benz[de]isoquinoline-1,3-dione hydrogeniodide], in data set [1], the “% ACTIVITY DARK AREA Mean ± SD” value is on record as 78.4 ± 1.8 %, the “LATENCY (SEC) Mean ± SD” value was 8.1 ± 1.4 s, the “LOCOMOTOR ACTIVITY (LIGHT AREA) Mean ± SD” value amounted to 1602.4 ± 73.0 and the “SHUTTLE ACTIVITY Mean ± SD” value is recorded as 138.6 ± 9.1. In addition, in data set [1], the “TIME DARK AREA (SEC) Mean ± SD” value worked out at 498.4 ± 9.3 s, the “% ACTIVITY DARK AREA W%” value is recorded as -10.0%, the “LATENCY (SEC) W%” value came to 102.5% and the “LOCOMOTOR ACTIVITY (LIGHT AREA) W%” value turned out to be 42.6%. In data set [1], the “SHUTTLE ACTIVITY W%” value turned out to be 112.3% and the “TIME DARK AREA (SEC) W%” value is given as -10.8%.

Consider `Cl.Nc1cc2c3c(cccc3c1Cl)C(=O)N([C@@H]1CN3CCC1CC3)C2=O` [S-6-chloro-5-amino-2-(1-azabicyclo[2.2.2]oct-3-yl)-2,3-dihydro-1H-benz[de]isoquinoline-1,3-dione hydrochloride], for which the unusual effects observed entry in data set [3] is on record as “No unusual effects”.

Regarding `Cc1nccn1CC1CCc2c(c3ccccc3n2C)C1=O` (stereo not shown) [Ondansetron, reference compound], in data set [1], the “% ACTIVITY DARK AREA Mean ± SD” value is reported as 78.5 ± 4.7%, the “LATENCY (SEC) Mean ± SD” value amounted to 6.7 ± 1.5 s, the “LOCOMOTOR ACTIVITY (LIGHT AREA) Mean ± SD” value is 1582.0 ± 77.8 and the “SHUTTLE ACTIVITY Mean ± SD” value was found to be 121.0 ± 12.4. In data set [1], the “TIME DARK AREA (SEC) Mean ± SD” value is 499.4 ± 14.8 s, the “% ACTIVITY DARK AREA W%” value is on record as -13.1%, the “LATENCY (SEC) W%” value is on record as 4.7% and the “LOCOMOTOR ACTIVITY (LIGHT AREA) W%” value was 52.6%. In addition, in data set [1], the “SHUTTLE ACTIVITY W%” value was 182.7% and the “TIME DARK AREA (SEC) W%” value is -12.8%.
